Experimental data from patent US8143212B2 (Vicuron Pharmaceuticals Inc., priority 2002, dated 2012).
Converted amounts (≈) assume the structure as drawn. Read-outs that look alike come from different tables or passages of the source.

How the values were obtained:
[1] = in vivo
Procedure: Safety was evaluated by the collection and analysis of data on adverse events (AEs), clinical laboratory tests, physical examinations, vital signs, and ECGs.

S. aureus = assay: MIC by NCCLS microdilution of study organisms (Table 29); format: cell-based
Procedure: (§1) MICs were determined in MHB by standard NCCLS microdilution techniques. […] All MICs were performed at least in duplicate.

S. pneumoniae = assay: as above; format: cell-based; conditions: Streptococcus pneumoniae
Procedure: as §1

[2] = rat, in vivo
Procedure: (§2) Excreta and more than 40 different tissues were collected through 70 days post-administration, and the tissue distribution and pharmacokinetics of drug-derived radioactivity were determined.
Rats (3 per time-point) were euthanized at 12, 24, 48, 72, 96, 120, 144, 168, 336, 840, 1176 and 1680 hours post dose for collection of blood, plasma, and tissues (including carcass). All samples were analyzed by LSC.
As part of the QTD studies, bile samples were collected from bile duct cannulated rats (4 animals) through 384 h (16 days) post-dose.

[3] = Phase II SSTI trial: safety (adverse events); format: in vivo, human
Procedure: Each patient who received at least one dose of study drug (ITT population) was evaluated for drug safety through monitoring of adverse events (AE), including abnormal clinical laboratory test results and vital signs. AE were rated by the investigator as to their severity (mild, moderate, severe, life-threatening), and by the relationship to the study drug (not related, unlikely related, possibly related, or probably related).

[4] = Pharmacokinetics and renal excretion in healthy subjects, single 1000 mg IV; format: in vivo, human; conditions: for t1/2: healthy subjects, single 1000 mg IV
Procedure: Blood samples were drawn into heparinized tubes and centrifuged. Plasma was separated and stored frozen at −20° C. until time of assay. Plasma and urine samples were assayed for dalbavancin using validated LC/MS/MS methods. […] The peak concentration (Cmax) values were obtained directly from the observed data. The area under the plasma concentration-time curve (AUC) was calculated using the linear trapezoidal rule. Clearance (CL) was computed as dose/AUC. The elimination half life (t1/2) was estimated by linear regression of the log-linear portion of the log concentration versus time curve. Estimates of the volume of distribution (VZ) was calculated using the regression parameters, while the volume of distribution at steady state (VSS) was calculated from the area under the first moment curve (AUMC) multiplied by the dose and divided by AUC. The cumulative amount of dalbavancin excreted in urine was determined as the integrand of the urine excretion rate (AURC). CLR, or renal clearance, was calculated as the ratio: CLR=AURC/AUC.

E faecalis = assay: MIC, microbiological activity (Table 3); format: cell-based; conditions: read-out: MIC
[5] = rat, in vivo; remark: listed apart in the source
Procedure: as §2
Following dose administration, urine and feces were collected at 24 hour intervals to 14, 36, and 70 days after the dose (3 rats/final collection time). Water and methanol cage washes were also collected. Carcasses were analyzed at the end of the collection period. All samples were analyzed for total radioactivity content by liquid scintillation counting (LSC).

in vivo = conditions: Swiss ICR, mouse, plasma, ip
Procedure: Neutropenia in this and all other studies was produced by injections of cyclophosphamide, 150 mg/kg 4 days prior to study, 100 mg/kg 1 day prior to study and 100 mg/kg every 48 h after start of infection until end of study. Neutrophil counts remained less than 100/mm^3 for the duration of study. Doses of 2.5, 5, 10, 20; 40, and 80 mg/kg were studied. Drug was administered by intraperitoneal injection of 0.2 ml volume. Blood was removed from groups of three mice by retroorbital aspiration into heparinized capillary tubes at 0.5, 1, 2, 4, 6, 24, 48, 72, and 96 hours after dosing. […] AUC was calculated by the trapezoidal rule from mean concentrations.

[6] = Pharmacokinetics and safety in subjects with renal impairment / ESRD (VER001-3, -11, -13); conditions: for half-life: human, plasma, intravenous
Procedure: The peak concentrations (Cmax) were obtained directly from the observed data. The area under the plasma concentration-time curve (AUC) were calculated using the linear trapezoidal rule.
Clinical Study VER001-13 examined subjects with mild and moderate renal impairment and Clinical Study VER001-1 examined subjects with severe renal impairment and subjects with end-stage renal disease (ESRD). Matched control subjects were enrolled in all studies. […] Subjects with ESRD were dependent on dialysis through the course of the study (3 times weekly).

bacteria = assay: Minimum bactericidal concentration; format: cell-based; conditions: in plasma
Source text: The amount of dalbavancin administered may be any of the dosages disclosed herein.

S aureus = assay: MIC, microbiological activity (Tables 2, 3); format: cell-based
[7] = system: Gram-positive isolates, including MRSA; format: cell-based; conditions: baseline isolates, MITT
[8] = Pharmacokinetics and safety in subjects with hepatic impairment (VER001-12); conditions: human, in vivo, intravenous, 1000 mg Day 1 and 500 mg Day 8, Mean (±SD)
Source text: (§3) The study enrolled otherwise healthy subjects with mild, moderate, or severe hepatic impairment (Child-Pugh scores 5 to 6, 7 to 9, and 10 to 15, respectively) and matched control subjects with normal hepatic function.

Staph. aureus = assay: ED50 against Staph. aureus murine septicaemias (Table 2); format: in vivo; conditions: Staphylococcus aureus, MSSA, sc, 10 min
[9] = human, in vivo
Source text: as §3

human albumin = human albumin (Homo sapiens, UniProt P02768); conditions: pH 7.4
Procedure: Integrated heat effects, after correction for heats of dilution, were analyzed by non-linear regression using a simple single-site binding model with the standard Microcal ORIGIN software package. Raw data (μcal/sec) for each injection were integrated to give the total heat effect per addition, then divided by amount of injectant to give kcal/mole of injectant. The same integration was applied for control dilution effects, and this was subtracted from the actual titration data. This provided a differential of the binding curve in which the extent of binding is proportional to the total heat liberated (or absorbed). This was then analyzed by non-linear regression methods in terms of various standard binding models. The simplest model assumes simple non-competitive binding equilibrium, and gives three parameters:

B subtilis = assay: MIC, microbiological activity (Table 3); format: cell-based; conditions: L 102 B subtilis ATCC; read-out: MIC
E coli = assay: MIC, microbiological activity (Table 3); format: cell-based
[10] = human, in vivo; remark: listed apart in the source
[11] = Staphylococcus aureus, MRSA, S. aureus strain MRSA
[12] = Staphylococcus aureus, S. aureus strain Smith

Chain of human albumin (P02768 25-609): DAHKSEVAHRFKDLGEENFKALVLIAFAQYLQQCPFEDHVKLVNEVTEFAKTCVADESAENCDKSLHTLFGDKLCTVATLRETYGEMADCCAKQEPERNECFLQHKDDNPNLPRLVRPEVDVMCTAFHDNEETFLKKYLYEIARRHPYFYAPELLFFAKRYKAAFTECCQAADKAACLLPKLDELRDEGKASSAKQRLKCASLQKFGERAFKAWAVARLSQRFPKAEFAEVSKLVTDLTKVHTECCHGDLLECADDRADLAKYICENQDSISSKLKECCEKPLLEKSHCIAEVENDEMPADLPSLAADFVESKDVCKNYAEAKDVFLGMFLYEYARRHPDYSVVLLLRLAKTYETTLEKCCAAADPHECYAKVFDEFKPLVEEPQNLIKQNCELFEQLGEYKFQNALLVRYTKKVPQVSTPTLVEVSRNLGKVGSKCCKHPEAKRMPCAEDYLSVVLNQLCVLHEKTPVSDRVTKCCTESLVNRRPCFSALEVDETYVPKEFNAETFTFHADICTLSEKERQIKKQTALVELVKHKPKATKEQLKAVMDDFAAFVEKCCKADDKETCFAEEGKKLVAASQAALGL

CN[C@H]1C(=O)N[C@@H]2Cc3ccc(cc3)Oc3cc4cc(c3O[C@@H]3O[C@H](C(=O)O)[C@@H](O)[C@H](O)[C@H]3NC(=O)CCCCCCCCC(C)C)Oc3ccc(cc3Cl)[C@@H](O)[C@@H]3NC(=O)[C@H](NC(=O)[C@@H]4NC(=O)[C@@H](NC2=O)c2cc(cc(O)c2Cl)Oc2cc1ccc2O)c1ccc(O)c(c1)-c1c(O[C@H]2O[C@H](CO)[C@@H](O)[C@H](O)[C@@H]2O)cc(O)cc1[C@@H](C(=O)NCCCN(C)C)NC3=O [Dalbavancin]
average difference of effect on QTc values ([1]; human): 7 ms
patients with AEs that led to discontinuation of study drug ([1]; human): 3%
SAE considered to be related to study drug [1]: no SAE
MBC (S. aureus; S. aureus strain 25923): 0.25 µg/mL (≈ 0.138 µM)
MIC (S. aureus; S. aureus strain MRSA): 0.06 µg/mL (≈ 0.033 µM)
MBC (S. aureus; S. aureus strain Smith): 0.25 µg/mL (≈ 0.138 µM)
MIC (S. aureus; S. aureus strain Smith): 0.12 µg/mL (≈ 0.0661 µM)
MBC (S. aureus; [11]): 0.25 µg/mL (≈ 0.138 µM)
MIC (S. aureus; [11]): 0.12 µg/mL (≈ 0.0661 µM)
MBC (S. aureus; Staphylococcus aureus, S. aureus strain 25923): 0.5 µg/mL (≈ 0.275 µM)
MIC (S. aureus; Staphylococcus aureus, S. aureus strain 31005): 0.06 µg/mL (≈ 0.033 µM)
MBC (S. aureus; Staphylococcus aureus, S. aureus strain 33591): 0.25 µg/mL (≈ 0.138 µM)
MIC (S. aureus; Staphylococcus aureus, S. aureus strain 307109): 0.06 µg/mL (≈ 0.033 µM)
MBC (S. aureus; [12]): 0.5 µg/mL (≈ 0.275 µM)
MIC (S. aureus; [12]): 0.06 µg/mL (≈ 0.033 µM)
MIC (S. aureus; Staphylococcus aureus, read-out: MICs, six S. aureus isolates): 0.06 to 0.12 µg/mL (≈ 0.033 to 0.0661 µM)
MIC (S. pneumoniae; S. pneumoniae SP1396): 0.008 µg/mL (≈ 0.0044 µM)
MIC (S. pneumoniae; S. pneumoniae strain 1199, read-out: MIC): 0.004 µg/mL (≈ 0.0022 µM)
MIC (S. pneumoniae; S. pneumoniae strain 1293, read-out: MIC): 0.004 µg/mL (≈ 0.0022 µM)
MIC (S. pneumoniae; S. pneumoniae strain 1325, read-out: MIC): 0.008 µg/mL (≈ 0.0044 µM)
MIC (S. pneumoniae; S. pneumoniae strain 1329, read-out: MIC): 0.008 µg/mL (≈ 0.0044 µM)
MIC (S. pneumoniae; S. pneumoniae strain 10813, read-out: MIC): 0.03 µg/mL (≈ 0.0165 µM)
MIC (S. pneumoniae; five pneumococcal organisms, read-out: MICs): 0.004 to 0.03 µg/mL (≈ 0.0022 to 0.0165 µM)
blood to plasma ratio of drug-derived radioactivity ([2]; male, Sprague-Dawley): < 1
recovered radioactivity in any single tissue ([2]; male, Sprague-Dawley, 5 days): < 5 % of the dose
administered radioactivity retained in carcass ([2]; male, Sprague-Dawley, 70 days): 2.34%
time to maximum concentration (Cmax) in most tissues [2]: ≤ 24 h
≧1 AE possibly/probably related to treatment ([3]; Single-dose dalbavancin (N = 20)): 55%
≧1 AE possibly/probably related to treatment ([3]; Two-dose dalbavancin (N = 21)): 48%
AE leading to discontinuation of study medication ([3]; human, in vivo): 0%
clinically significant hepatotoxicity or nephrotoxicity ([3]; in vivo): no evidence
premature discontinuation of treatment due to an AE ([3]; in vivo): No dalbavancin-treated patient discontinued treatment prematurely
serious adverse events related to study drug treatment ([3]; in vivo): no serious adverse events
t1/2 ([4]; Max): 11.8 days
t1/2 ([4]; Min): 9.46 days
peak concentration ([4]; both, human, in vivo): ~165 µM
MIC (E faecalis; L 149 E faecalis): 0.06 µg/mL (≈ 0.033 µM)
MIC (E faecalis; L 562 E faecalis clin. isolate): > 32 µg/mL
dose remaining in the carcass ([5]; male, Sprague-Dawley, 1680 h): 4.5 % of the dose
share of excreted radioactivity eliminated in feces ([5]; iv, 20 mg/kg): ⅓
share of excreted radioactivity eliminated in urine ([5]; iv, 20 mg/kg): ⅔
half-life (in vivo): 0.317 to 0.546 days
half-life ([6]; 500 mg, t1/2, ESRD Postdialysis (N = 3), VER001-11, single dose 500 mg): 14.5 days
half-life ([6]; 500 mg, t1/2, ESRD Predialysis (N = 3), VER001-11, single dose 500 mg): 15.7 days
half-life ([6]; 500 mg, t1/2, Normal Renal Function (N = 6), VER001-11, single dose 500 mg): 13.9 days
half-life ([6]; 500 mg, t1/2, Severe Renal Impairment (N = 6), VER001-11, single dose 500 mg): 18.9 days
half-life ([6]; 1000 mg, t1/2, Mild Renal Impairment (N = 6), VER001-13, single dose 1000 mg): 16.2 days
half-life ([6]; 1000 mg, t1/2, Moderate Renal Impairment (N = 6), VER001-13, single dose 1000 mg): 18 days
half-life ([6]; 1000 mg, t1/2, Normal Renal Function (N = 9), VER001-13, single dose 1000 mg): 17.4 days
half-life ([6]; 1000 mg, t1/2, Severe Renal Impairment (N = 4), VER001-11, single dose 1000 mg): 19.5 days
half-life ([6]; 1120 mg, t1/2, Normal Renal Function (N = 3), VER001-2, single dose 1120 mg): 6.21 days
increase in concentrations vs normal renal function ([6]; severe renal impairment, through the first week post-dose): ≤ 40%
MBC (bacteria): ~4 µg/mL (≈ 2.2 µM)
MIC (S aureus; 3817 S aureus clin. Isolate, read-out: MIC): < 0.03 µg/mL
MIC (S aureus; L 819 S aureus Smith 50% serum): 2 µg/mL (≈ 1.1 µM)
MIC (S aureus; L 819 S aureus Smith 50% serum, read-out: MIC): 1 µg/mL (≈ 0.55 µM)
MIC (S aureus; Staphylococcus aureus, MSSA, MSSA Staph. aureus Smith 819, read-out: MIC): 0.06 µg/mL (≈ 0.033 µM)
Dalbavancin MIC ([7]; All S. aureus, Single dose Dalbavancin (1100 mg) group): (0.12)
Dalbavancin MIC ([7]; All S. aureus, Standard of Care Regimens group): (0.016-0.25)
Dalbavancin MIC ([7]; All S. aureus, Two-dose Dalbavancin (1000/500 mg) group): (0.12)
Dalbavancin MIC ([7]; Group B streptococcus, Standard of Care Regimens group): (0.016)
Dalbavancin MIC ([7]; Group B streptococcus, Two-dose Dalbavancin (1000/500 mg) group): (0.016)
Dalbavancin MIC ([7]; Miscellaneous Streptococcus and nontypeable strains, Single dose Dalbavancin (1100 mg) group): (0.016)
Dalbavancin MIC ([7]; Miscellaneous Streptococcus and nontypeable strains, Standard of Care Regimens group): (0.016)
Dalbavancin MIC ([7]; Miscellaneous Streptococcus and nontypeable strains, Two-dose Dalbavancin (1000/500 mg) group): (0.016)
Dalbavancin MIC ([7]; Streptococcus pyogenes, Standard of Care Regimens group): (0.016)
half-life ([8]; t1/2, Mild Hepatic Impairment (N = 6)): 13.5 days
half-life ([8]; t1/2, Moderate Hepatic Impairment (N = 6)): 13.3 days
half-life ([8]; t1/2, Normal Hepatic Function (N = 9)): 13.4 days
half-life ([8]; t1/2, Severe Hepatic Impairment (N = 5)): 13.4 days
ED50 (Staph. aureus): 0.05 mg/kg
tolerability [9]: well tolerated
Calculated percent Binding (human albumin; 1 μM): 98.8%
Calculated percent Binding (human albumin; 10 μM): 98.8%
Calculated percent Binding (human albumin; 100 μM): 98.7%
Calculated percent Binding (human albumin; 165 μM): 98.6%
Calculated percent Binding (human albumin; 250 μM): 98.5%
Calculated percent Binding (human albumin; 500 μM): 98.0%
MIC (B subtilis): < 0.03 µg/mL
MIC (E coli; G 16440 E coli iperperm): 8 µg/mL (≈ 4.4 µM)
MIC (E coli; L 47 E coli SKF12140, read-out: MIC): > 32 µg/mL
plasma concentration, all patients [10]: greater than 20 mg/l
